Laboratory results taken from patent publication US20240116985A1, “STAPLED PEPTIDES AND METHODS THEREOF” (priority 2020, published 2024).
In brackets after ≈: the same amount, converted by molar mass. Like-named read-outs stand apart in the source and are kept apart here.

Experiments:
[1] = biological target: T1, full-length beta-Catenin (Uniprot ID P35222) (Homo sapiens, UniProt P35222); assay: Fluorescence polarization IC50 (beta-catenin / 5FAM-TCF4 10-53 competition); format: binding; conditions: read-out: beta-Catenin FP IC50
T1 construct: 10 nM full-length beta-Catenin (Uniprot ID P35222)
T1 sequence (P35222 1-781): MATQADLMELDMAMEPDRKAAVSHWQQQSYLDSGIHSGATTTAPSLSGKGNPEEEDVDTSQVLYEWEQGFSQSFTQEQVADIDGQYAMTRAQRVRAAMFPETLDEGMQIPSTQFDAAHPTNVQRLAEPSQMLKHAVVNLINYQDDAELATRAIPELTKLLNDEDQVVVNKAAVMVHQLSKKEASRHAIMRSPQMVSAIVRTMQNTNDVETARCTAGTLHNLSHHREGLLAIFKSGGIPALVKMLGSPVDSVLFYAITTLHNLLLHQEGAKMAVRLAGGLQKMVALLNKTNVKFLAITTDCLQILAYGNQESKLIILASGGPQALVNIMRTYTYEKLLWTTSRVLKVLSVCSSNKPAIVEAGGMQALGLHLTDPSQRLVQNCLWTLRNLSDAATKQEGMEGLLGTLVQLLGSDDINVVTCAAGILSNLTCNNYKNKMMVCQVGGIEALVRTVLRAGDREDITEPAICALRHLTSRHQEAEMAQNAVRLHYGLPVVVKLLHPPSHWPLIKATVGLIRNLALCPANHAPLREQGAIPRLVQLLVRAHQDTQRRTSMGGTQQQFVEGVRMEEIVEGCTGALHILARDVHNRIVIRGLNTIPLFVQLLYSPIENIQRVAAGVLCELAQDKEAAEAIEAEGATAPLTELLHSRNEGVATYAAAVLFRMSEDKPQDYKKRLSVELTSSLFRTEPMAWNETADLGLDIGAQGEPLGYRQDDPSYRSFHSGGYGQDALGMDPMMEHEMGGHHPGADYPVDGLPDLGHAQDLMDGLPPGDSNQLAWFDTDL

[2] = CHI Log D procedure; format: physicochemical; conditions: pH 7.4, CHI Log D
[3] = Solubility in PBS; format: physicochemical
In short: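 Read-out is the HPLC peak area of the supernatant from ultracentrifuged PBS solution, scaled against a 50 μM peptide DMSO injection; value reported as [(PBS area)/(DMSO area)]*50 uM.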

[4] = biological target: T2, beta-catenin/TCF4 engagement (Homo sapiens, UniProt P35222); assay: Nano-BRET target engagement assay (B-cat-Halo & TCF4-Luc in HEK293 cells); format: cell-based; conditions: for inhibition at 10 µM: HEK293, 10 uM, read-out: NanoBRET % inh @ 10 uM
T2 construct: expressed in transfected cells; host or cells: HEK293
T2 sequence (P35222 1-781): T1 sequence (P35222 1-781)

Row | Compound | IC50 [1] [µM] | chromatographic logD [2] | Solubility [3] [µM] | IC50 ([4]; read-out: NanoBRET Abs IC50) [µM] | Solubility ([3]; Solubility (uM)) [µM] | inhibition at 10 µM [4] [%] | IC50 ([4]; read-out: NanoBRET IC50) [µM]
1 | CC(=O)N1CCC[C@]12CC=CCCCC1(CCCC=CCCCOC(=O)N3CC[C@@](C(=O)N[C@@H](Cc4ccsc4)C(=O)N[C@@H](Cc4csc5ccccc45)C(=O)N[C@@H](CCC(N)=O)C(N)=O)(C3)NC(=O)[C@H](CCCNC(N)=O)NC(=O)[C@H](Cc3ccccc3)NC(=O)[C@H](C)NC(=O)[C@H](C)NC(=O)[C@H](CC(=O)O)NC(=O)[C@H](CC(=O)O)NC1=O)NC(=O)[C@H](CC(C)(C)C)NC(=O)[C@H](CC(=O)O)NC2=O (stereo partly drawn) [I-805, Ac-PL3-Asp-Npg-B5-Asp-Asp-Ala-Ala-Phe-Cit-PyrS2-3Thi-BztA-Gln-NH2] | 0.005 | 1.98 | 50 (≈ 98.1 µg/mL) | 18.5 | – | – | –
2 | CC(=O)N1CCC[C@]12CC=CCCCC1(CCCC=CCCCOC(=O)N3CC[C@@](C(=O)N[C@@H](Cc4ccsc4)C(=O)N[C@@H](Cc4csc5ccccc45)C(=O)N[C@@H](Cc4c[nH]cn4)C(N)=O)(C3)NC(=O)[C@H](CCCNC(N)=O)NC(=O)[C@H](Cc3ccccc3)NC(=O)[C@H](C)NC(=O)[C@H](C)NC(=O)[C@H](CC(=O)O)NC(=O)[C@H](CC(=O)O)NC1=O)NC(=O)[C@H](CC(C)(C)C)NC(=O)[C@H](CC(=O)O)NC2=O (stereo partly drawn) [I-806, Ac-PL3-Asp-Npg-B5-Asp-Asp-Ala-Ala-Phe-Cit-PyrS2-3Thi-BztA-His-NH2] | 0.005 | 2.04 | – | 21.6 | 37 (≈ 72.9 µg/mL) | – | –
3 | CC(=O)N1CCC[C@]12CC=CCCCC1(CCCC=CCCCOC(=O)N3CC[C@@](C(=O)N[C@@H](Cc4ccsc4)C(=O)N[C@@H](Cc4csc5ccccc45)C(=O)N[C@@H](Cc4c[nH]cn4)C(N)=O)(C3)NC(=O)[C@H](Cc3ccccc3)NC(=O)[C@H](Cc3ccccc3)NC(=O)[C@H](C)NC(=O)[C@H](C)NC(=O)[C@H](CC(=O)O)NC(=O)[C@H](CC(=O)O)NC1=O)NC(=O)[C@H](CC(C)(C)C)NC(=O)[C@H](CC(=O)O)NC2=O (stereo partly drawn) [I-808, Ac-PL3-Asp-Npg-B5-Asp-Asp-Ala-Ala-Phe-Phe-PyrS2-3Thi-BztA-His-NH2] | 0.005 | 2.34 | 10 (≈ 19.6 µg/mL) | 4.4 | – | – | –
4 | CC(=O)N1CCC[C@]12CC=CCCCC1(CCCC=CCCCOC(=O)N3CC[C@@](C(=O)N[C@@H](Cc4ccsc4)C(=O)N[C@@H](Cc4csc5ccccc45)C(=O)N[C@@H](Cc4c[nH]cn4)C(N)=O)(C3)NC(=O)[C@H]([C@@H](C)O)NC(=O)[C@H](Cc3ccccc3)NC(=O)[C@H](C)NC(=O)[C@H](C)NC(=O)[C@H](CC(=O)O)NC(=O)[C@H](CC(=O)O)NC1=O)NC(=O)[C@H](CC(C)(C)C)NC(=O)[C@H](CC(=O)O)NC2=O (stereo partly drawn) [I-810, Ac-PL3-Asp-Npg-B5-Asp-Asp-Ala-Ala-Phe-Thr-PyrS2-3Thi-BztA-His-NH2] | 0.006 | 2.17 | – | 18 | 39 (≈ 74.7 µg/mL) | – | –
5 | CC(=O)N1CCC[C@]12CC=CCCCC1(CCCC=CCCCOC(=O)N3CC[C@@](C(=O)N[C@@H](Cc4cscn4)C(=O)N[C@@H](Cc4csc5ccccc45)C(=O)N[C@@H](CCC(N)=O)C(N)=O)(C3)NC(=O)[C@H](CC(N)=O)NC(=O)[C@H](Cc3ccccc3)NC(=O)[C@H](C)NC(=O)[C@H](C)NC(=O)[C@H](CC(=O)O)NC(=O)[C@H](CC(=O)O)NC1=O)NC(=O)[C@H](CC(C)(C)C)NC(=O)[C@H](CC(=O)O)NC2=O (stereo partly drawn) [I-811, Ac-PL3-Asp-Npg-B5-Asp-Asp-Ala-Ala-Phe-Asn-PyrS2-4Thz-BztA-Gln-NH2] | 0.032 | 1.68 | – | > 20 | 43 (≈ 82.5 µg/mL) | – | –
6 | CC(=O)N1CCC[C@]12CC=CCCCC1(CCCC=CCCCOC(=O)N3CC[C@@](C(=O)N[C@@H](Cc4ccsc4)C(=O)N[C@@H](Cc4csc5ccccc45)C(=O)N[C@H](Cc4c[nH]cn4)C(N)=O)(C3)NC(=O)[C@H](CC(N)=O)NC(=O)[C@H](Cc3ccccc3)NC(=O)[C@H](C)NC(=O)[C@H](C)NC(=O)[C@H](CC(=O)O)NC(=O)[C@H](CC(=O)O)NC1=O)NC(=O)[C@H](CC(C)(C)C)NC(=O)[C@H](CC(=O)O)NC2=O (stereo partly drawn) [I-813, Ac-PL3-Asp-Npg-B5-Asp-Asp-Ala-Ala-Phe-Asn-PyrS2-3Thi-BztA-dHis-NH2] | 0.007 | 2.17 | – | 20.9 | 28 (≈ 54 µg/mL) | – | –
7 | CC(=O)N1CCC[C@]12CC=CCCCC1(CCCC=CCCCOC(=O)N3CC[C@@](C(=O)N[C@@H](Cc4ccsc4)C(=O)N[C@@H](Cc4csc5ccccc45)C(=O)N[C@@H](CC(N)=O)C(N)=O)(C3)NC(=O)[C@H](CC(N)=O)NC(=O)[C@H](Cc3ccccc3)NC(=O)[C@H](C)NC(=O)[C@H](C)NC(=O)[C@H](CC(=O)O)NC(=O)[C@H](CC(=O)O)NC1=O)NC(=O)[C@H](CC(C)(C)C)NC(=O)[C@H](CC(=O)O)NC2=O (stereo partly drawn) [I-816, Ac-PL3-Asp-Npg-B5-Asp-Asp-Ala-Ala-Phe-Asn-PyrS2-3Thi-BztA-Asn-NH2] | 0.005 | 2.05 | – | 13.7 | 46 (≈ 87.6 µg/mL) | – | –
8 | CC(=O)N1CCC[C@]12CC=CCCCC1(CCCC=CCCCOC(=O)N3CC[C@@](C(=O)N[C@@H](Cc4ccsc4)C(=O)N[C@@H](Cc4csc5ccccc45)C(=O)N[C@@H](C(N)=O)[C@H](C)O)(C3)NC(=O)[C@H](CC(N)=O)NC(=O)[C@H](Cc3ccccc3)NC(=O)[C@H](C)NC(=O)[C@H](C)NC(=O)[C@H](CC(=O)O)NC(=O)[C@H](CC(=O)O)NC1=O)NC(=O)[C@H](CC(C)(C)C)NC(=O)[C@H](CC(=O)O)NC2=O (stereo partly drawn) [I-817, Ac-PL3-Asp-Npg-B5-Asp-Asp-Ala-Ala-Phe-Asn-PyrS2-3Thi-BztA-dThr-NH2] | 0.01 | 2.23 | – | – | 47 (≈ 88.9 µg/mL) | 45 | 6.8
9 | CC(=O)N1CCC[C@]12CC=CCCCC1(CCCC=CCCCOC(=O)N3CC[C@@](C(=O)N[C@@H](Cc4ccsc4)C(=O)N[C@@H](Cc4csc5ccccc45)C(=O)N[C@H](CC(N)=O)C(N)=O)(C3)NC(=O)[C@H](CC(N)=O)NC(=O)[C@H](Cc3ccccc3)NC(=O)[C@H](C)NC(=O)[C@H](C)NC(=O)[C@H](CC(=O)O)NC(=O)[C@H](CC(=O)O)NC1=O)NC(=O)[C@H](CC(C)(C)C)NC(=O)[C@H](CC(=O)O)NC2=O (stereo partly drawn) [I-818, Ac-PL3-Asp-Npg-B5-Asp-Asp-Ala-Ala-Phe-Asn-PyrS2-3Thi-BztA-dAsn-NH2] | 0.006 | 2.12 | – | 15 | 48 (≈ 91.4 µg/mL) | 31.4 | –
10 | CC(=O)N1CCC[C@]12CC=CCCCC1(CCCC=CCCCOC(=O)N3CC[C@@](C(=O)N[C@@H](Cc4ccsc4)C(=O)N[C@@H](Cc4csc5ccccc45)C(=O)N[C@@H](CCC(N)=O)C(=O)N[C@@H](C)C(N)=O)(C3)NC(=O)[C@H](CC(N)=O)NC(=O)[C@H](Cc3ccccc3)NC(=O)[C@H](C)NC(=O)[C@H](C)NC(=O)[C@H](CC(=O)O)NC(=O)[C@H](CC(=O)O)NC1=O)NC(=O)[C@H](CC(C)(C)C)NC(=O)[C@H](CC(=O)O)NC2=O (stereo partly drawn) [I-819, Ac-PL3-Asp-Npg-B5-Asp-Asp-Ala-Ala-Phe-Asn-PyrS2-3Thi-BztA-Gln-Ala-NH2] | 0.005 | 2.03 | 50 (≈ 99.5 µg/mL) | 7.5 | – | 37.8 | –
11 | CC(=O)N1CCC[C@]12CC=CCCCC1(CCCC=CCCCOC(=O)N3CC[C@@](C(=O)N[C@@H](Cc4ccsc4)C(=O)N[C@@H](Cc4csc5ccccc45)C(=O)N[C@@H](Cc4c[nH]cn4)C(=O)N[C@@H](C)C(N)=O)(C3)NC(=O)[C@H](CC(N)=O)NC(=O)[C@H](Cc3ccccc3)NC(=O)[C@H](C)NC(=O)[C@H](C)NC(=O)[C@H](CC(=O)O)NC(=O)[C@H](CC(=O)O)NC1=O)NC(=O)[C@H](CC(C)(C)C)NC(=O)[C@H](CC(=O)O)NC2=O (stereo partly drawn) [I-820, Ac-PL3-Asp-Npg-B5-Asp-Asp-Ala-Ala-Phe-Asn-PyrS2-3Thi-BztA-His-Ala-NH2] | 0.006 | 2.1 | – | 18.2 | 38 (≈ 75.9 µg/mL) | 30.8 | –
